Measured values as given in patent US20090312575A1, “Process For Preparing A Benzoylbenzeneacetamide Derivative” (Medichem, S.A., priority 2008, published 2009).
≈ marks a conversion by molar mass, not a printed value. Like-named read-outs stand apart in the source and are kept apart here.

How the values were obtained:
[1] = polymorphic form after one year storage (XRD and IR); type: physicochemical; conditions: one year at room temperature and ambient atmosphere conditions
Description: X-ray Powder Diffraction (XRD). The XRD diffractograms were obtained using a RX SIEMENS D5000 diffractometer with a vertical goniometer, a copper anodic tube, and radiation CuKα, λ=1, 54056 Á.
Infrared Spectra (IR). Fourier transform IR spectra were acquired on a Thermo Nicolet Nexus spectrometer, and polymorphs were characterized in potassium bromide pellets.
Analytical data: XRD: Form A, see FIG. 1; IR: see FIG. 2; DSC: see FIG. 7. Analytical data of the compound after one year at room temperature and ambient atmosphere conditions (XRD and IR): Form A.
Analytical data: XRD: Form B, see FIG. 3; DSC: see FIG. 8. Analytical data of the compound after one year at room temperature and ambient atmosphere conditions (XRD and IR): Form B.

[2] = solubility profile at room temperature in organic solvents; type: physicochemical
Description: Optionally, water can be added to the suspension earlier than the filtration. Further, this filtration step introduces an additional purification step.

Q: What does the source list for CSC(C(N)=O)c1cccc(C(=O)c2ccccc2)c1N (stereo not drawn) [compound (IV) Form A, 2-amino-3-benzoyl-α-(methylthio)benzeneacetamide]?
A: crystalline form after one year (XRD and IR) ([1]; listed as Example 4): Form A; solubility ([2]; 1:1 mixture of tetrahydrofuran/water, aqueous with cosolvent or surfactant or cyclodextrin, 1:1 tetrahydrofuran/water, room temperature, read-out: solubility in a 1:1 mixture of tetrahydrofuran/water): ~50 mg/mL (≈ 166 mM); solubility ([2]; tetrahydrofuran, organic solvent or mixture, tetrahydrofuran, room temperature, read-out: solubility in tetrahydrofuran): ~50 mg/mL (≈ 166 mM)

Q: Which “crystalline form after one year (XRD and IR)” value ([1]; listed as Example 5) does the source give for CSC(C(N)=O)c1cccc(C(=O)c2ccccc2)c1N (stereo not drawn) [compound (IV) Form B, 2-amino-3-benzoyl-α-(methylthio)benzeneacetamide] here?
A: Form B

Q: And the solubility ([2]; acetonitrile, organic solvent or mixture, acetonitrile (reaction mixture solvent), read-out: solubility in acetonitrile)?
A: ~5.9 mg/mL (≈ 19.6 mM)

Q: What about the solubility in tetrahydrofuran ([2]; tetrahydrofuran, room temperature) of the same compound?
A: approx. 33 mg/mL
